The values below come from a melting point compilation (Tetko et al.; mined from patent text by program, amines drawn as free bases though some values may be those of a salt).

What is called melting point is the temperature, or range, at which the solid turns liquid. As to `COC(=O)C1CC(O)CN1C(=O)c1cc(OC)c(OC)c(OC)c1` (stereo unspecified), the melting point turned out to be 126 °C.

For `OCCOc1ccc(-c2nc(-c3ccc(OCCO)cc3O)nc(-c3ccc(OCCO)cc3O)n2)cc1`, the melting point amounted to 169 °C.

For `O=C(Nc1ccc(CN2CCC(=O)C(=C3SC=CS3)C2=O)cc1)OCc1ccccc1`, the melting point lay in the range of 175 to 176 °C.

For `c1ccc(COc2cccc(OCc3ccccc3)n2)cc1`, the melting point came out at 74 °C.

For `N=C(NO)c1nc(-c2ccc(Cl)cc2)cc(C(F)(F)F)n1`, the melting point worked out at 243 °C.

Consider `N=c1cc(NCCCCc2c[nH]cn2)ccs1`, for which the melting point lay within 209 to 211 °C.

For `c1ccc(OCC2CCN(CCCOc3cccc4[nH]c5ccccc5c34)CC2)cc1`, the melting point was in the range of 126 to 128 °C.

On to `COc1cc(C(C)C)c2c(c1)S(=O)(=O)N(CBr)C2=O`, for which the melting point was in the range of 157 to 159 °C.

Compound `CC(C)(C)OC(=O)N1CCC2(CC1)C(=O)Nc1ccccc12` displayed a melting point of 138 to 140 °C.

In turn, `N#CC(C#N)=C1N(CCCN2CCC(F)(F)C2)CCN1CCCN1CCC(F)(F)C1` gave a melting point of 122 to 124 °C.

Turning to `CCn1c(COC(N)=O)nc(C2CC2)c1Sc1cc(C#N)cc(C#N)c1`, the melting point was in the range of 170 to 172 °C.

With `CC(C)c1ccc2oc3cc(C#N)c(O)nc3c(=O)c2c1`, the melting point is > 300 °C.

Regarding `CC(C)(C)[Si](C)(C)Oc1ccc(CON2C(=O)c3ccccc3C2=O)cc1`, the melting point fell in the range of 76 to 77 °C.

On to `O=c1oc2cc(OCc3nnn[nH]3)cc(OCc3nnn[nH]3)c2c2c1CC(c1ccccc1)CC2` (stereo unspecified), for which the melting point fell in the range of 235 to 245 °C.

On to `CCOC(=O)c1cc2c(nc(C)n2C)c(O)c1CCC(=O)c1ccccc1`, for which the melting point fell in the range of 205 to 206 °C.

As to `COc1ccc(-c2ccnc3c(C(=O)c4cccs4)cnn23)cc1NC(=O)NC(C)C`, the melting point lay within 202 to 204 °C.

`CCOCC(=O)C1CCC2C3CCC4CC(O)CCC4(C)C3C(=O)CC12C` (stereo unspecified) had a melting point of 129 to 131 °C.

The compound `CC(=O)N1CCc2cc(S(=O)(=O)n3c(CCCC(=O)O)cc4cc(Cl)ccc43)ccc21` displayed a melting point of 115 to 117 °C.

For `Nn1nc(-c2ccc(Cl)cc2)cc1OCCN1CCCCC1`, the melting point is 119 °C.

For the compound `COC(=O)c1ccc(-c2nc(-c3cccc(OC(F)(F)F)c3)cs2)cc1`, the melting point lay within 132 to 134 °C.

Compound `CCN(CCCOc1ccc(C(=O)O)cc1)c1ccc(Cl)cc1` registered a melting point of 146 to 149 °C.

In the case of `CN(CCOc1ccc(CC(S)C(=O)O)cc1)c1nc2ccccc2o1` (stereo unspecified), the melting point was 154 to 156 °C.

Turning to `CC(=O)c1ccc(-c2cnco2)cc1`, the melting point was 128 to 130 °C.

The compound `CC(C)(C)c1cc(CCc2ccccc2NC(=O)NCCc2ccc(Cl)cc2)cc(C(C)(C)C)c1O` had a melting point of 173 to 174 °C.

In turn, `O=C(NC(Cc1ccc(OCc2ccc(Cl)cc2)cc1)C(=O)O)c1cc2ccc(-c3ccc(Cl)cc3)cc2o1` (stereo unspecified) showed a melting point of 195 °C.

Turning to `CC(=Cc1ccc(Br)cc1)c1ccc2c(C)c(C)c(C)c(C)c2c1`, the melting point lay within 133 to 136 °C.

On to `CCNC(=O)Nc1cc(-c2sc(CC)nc2-c2cccc(C)c2)ccn1`, for which the melting point is 160 to 162 °C.

For the compound `O=C(O)C1=Cc2ccc(OCc3ccccc3)cc2CC1`, the melting point lay within 202 to 205 °C.

For the compound `CC(=O)S[C@@H](CCc1ccccc1C)C(=O)O`, the melting point was 47 to 48 °C.

Take `CC(C)(O)c1ccc(-c2cnc3[nH]c(=O)n(CCC4CCOCC4)c3n2)cc1`: the melting point lay in the range of 263 to 266 °C.

For the compound `Cc1[nH]c(=O)c2c(ccc3nc(Nc4c(Cl)cccc4Cl)n(C)c32)c1CCO`, the melting point is > 300 °C.

Consider `Cc1c(N2CC[C@@H](N)[C@H](C)C2)c(F)cc2c(=O)c(C(=O)O)cn(C3CC3)c12` (relative stereo), for which the melting point lay within 223 to 225 °C.

The compound `CC(=O)Nc1cccc(-c2nc3n(n2)CCc2ccccc2-3)c1` came in with a melting point of 225 to 226 °C.

In the case of `CC(O)(c1ccccc1)C1CCN1C(c1ccccc1)c1ccccc1` (stereo unspecified), the melting point is 152 to 154 °C.

Take `O=C1NC(=O)c2c1c(-c1ccccc1)cc1[nH]c3ccc(OP(=O)(OCc4ccccc4)OCc4ccccc4)cc3c21`: the melting point lay within 193 to 194 °C.

The compound `Cn1ccnc1COc1cccc(Nc2cc(-c3c[nH]nc3-c3ccccn3)ccn2)c1` yielded a melting point of 120 °C.

As for `CCn1c(=N)c(F)cn(S(=O)(=O)c2ccccc2)c1=O`, the melting point was 163 to 166 °C.

`Cc1ccc(CCc2ccccc2Br)c(N)c1` displayed a melting point of 67 to 69 °C.

The compound `O=C(N[C@H]1CCN(CCc2ccc(F)cc2)C1)C(c1ccccc1F)c1ccccc1F` registered a melting point of 107 to 108 °C.

In turn, `Cc1ccccc1-c1nc(-c2cccc(Cl)c2)n(C)n1` displayed a melting point of 86 to 88 °C.

`C#CCN(c1ccc(C(=O)NC(CCc2nnn[nH]2)C(=O)O)cc1)C(C)c1cc2c(=O)[nH]c(C)nc2cc1C` (stereo unspecified) showed a melting point of 207 °C.

`OCC(O)CNC(c1ccccc1)C(O)c1ccccc1` (stereo unspecified) gave a melting point of 161 to 163 °C.

`CC(=O)N(C)C(c1ccc(F)cc1)c1ccc(F)cc1` displayed a melting point of 99 to 100 °C.

In the case of `CC(C)(C)OC(=O)NCc1[nH]c(=O)c2ccc(C#N)cc2c1-c1ccc(Cl)cc1`, the melting point was in the range of 234 to 235 °C.

For the compound `COc1ccc(OC)c(Cc2c(C)c3c(N)nc(N)nc3[nH]c2=O)c1`, the melting point was 325 to 326 °C.

The compound `COc1ccccc1C1CC(=O)C(C(C)=O)C(=O)C1` (stereo unspecified) showed a melting point of 65 to 66 °C.

As for `Cc1cc([N+](=O)[O-])c(Cl)c([N+](=O)[O-])c1S(=O)(=O)Cl`, the melting point lay within 105 to 107 °C.

`COc1ccc2c(cccc2[C@H]2CO[C@H](CCCNC(=O)OCc3nccn3C(c3ccccc3)(c3ccccc3)c3ccccc3)OC2)c1` showed a melting point of 130 to 132 °C.

Compound `CCOC(=O)Nc1cc(N(C(=O)OCC)S(=O)(=O)CC)c(Br)cc1F` yielded a melting point of 142 to 143 °C.

Compound `CCCSc1cc(C(=O)O)cc(S(N)(=O)=O)c1-c1ccccc1` returned a melting point of 85 to 87 °C.

In the case of `CCCCOc1c(-c2ccc(S(C)(=O)=O)cc2)cnn(-c2ccc(F)c(F)c2)c1=O`, the melting point lay in the range of 129 to 132 °C.

As for `OCc1cc2cc(-c3ccccc3)ccc2o1`, the melting point was in the range of 134 to 135 °C.

In turn, `OCc1cc(I)ccc1F` came in with a melting point of 42 °C.

As to `O=C1c2ccccc2C(=O)N1CC(=O)N1c2ccccc2N(Cc2ccc(O)cc2)C(=O)[C@H]2CCC[C@H]21` (relative stereo), the melting point lay in the range of 264 to 267 °C.

As to `COc1cc(O)cc2nc(-c3ccc(O)cc3)oc12`, the melting point is 225 to 228 °C.

Compound `Cc1ccc(NC(=N)c2ccccc2)cc1NC(=O)/C=C/c1ccccc1C(F)(F)F` returned a melting point of 220 to 222 °C.

`N#Cc1cc(-c2ccoc2)c2ccc(COc3cc(F)cc(-c4cccnc4)c3)cc2n1` registered a melting point of 193 to 195 °C.

The compound `CCNC(=O)c1[nH]c2ccc(Cl)cc2c1S(=O)(=O)c1ccccc1` showed a melting point of 259 to 260 °C.

`CCOC1COCC1Oc1cc(C(=O)Nc2c(Cl)cncc2Cl)ccc1OC` (stereo unspecified) yielded a melting point of 171 to 173 °C.

On to `NS(=O)(=O)c1cc2c(s1)S(=O)CC(=O)N2` (stereo unspecified), for which the melting point fell in the range of 222 to 223 °C.

The compound `OC(CCN1CCN(c2ccc(F)cc2)CC1)c1cnn2c1CCCC2` (stereo unspecified) displayed a melting point of 130 to 131 °C.

With `O=C1CCCn2c(=O)n(Cc3ccccc3)c3cccc1c32`, the melting point was 135 °C.

In turn, `O=C(O)CCCNC(=O)c1ccccc1NC(=O)c1cccc(Cl)c1` displayed a melting point of 165 to 166 °C.

Turning to `CCn1cc(C(=O)O)c(=O)c2cc(F)c(N3CCSCC3)c(F)c21`, the melting point was > 300 °C.

`NC(=O)C(O)C1OC(n2cnc3c(N)ncnc32)C(O)C1O` (stereo unspecified) came in with a melting point of 220 to 222 °C.

`C=CCOC(=O)c1ccc(N=C(OC)c2ccc(OC)c(C34CC5CC(CC(C5)C3)C4)c2)cc1` returned a melting point of 85 to 87 °C.

`CCC(C)(C)C1=C(O)C(=O)c2ccccc2C1=O` showed a melting point of 52 °C.

The compound `C[Si](C)(C)O[C@H]1C=C(S(=O)(=O)c2ccccc2)C=CCC1` registered a melting point of 61.9 to 63.8 °C.

`CCCCCCCCCCCC(=O)Nc1ccc(O)c(C(=O)O)c1` came in with a melting point of 201 to 205 °C.

`CCCCCCCCn1c(=O)n(CCN2CCN(c3ccccc3OC)CC2)c(=O)c2cscc21` yielded a melting point of 82 to 84 °C.

Compound `CCOC(=O)C1=C(C)NC(CO)=C(C(=O)OCC)C1c1ccccc1OC` (stereo unspecified) displayed a melting point of 125 to 126 °C.

`O=S(=O)(NCCc1ccc(Nc2nnn[nH]2)cc1)c1ccc(Cl)cc1` had a melting point of 148 to 150 °C.

As to `CC(O)(CCCC(F)(F)C(F)(F)C(F)(F)C(F)(F)C(F)(F)C(F)(F)F)CCCC(F)(F)C(F)(F)C(F)(F)C(F)(F)C(F)(F)C(F)(F)F`, the melting point lay within 46 to 47 °C.

`CC(C)Oc1ccc(-c2nn(Cc3oc4cccc(F)c4c(=O)c3-c3cccc(F)c3)c3ncnc(N)c23)cc1F` came in with a melting point of 156 to 159 °C.

Consider `N#Cc1cc(C#N)cc(Oc2c(C3CC3)nn(CCO)c2C2CC2)c1`, for which the melting point was in the range of 115 to 117 °C.

As for `CCN(CC)CCSC1=C(C#N)C(c2cccnc2)(c2ccc(OC)c(OC)c2)C(=O)N1` (stereo unspecified), the melting point was 133 to 135 °C.

`COC(=O)CCC#CCCC(=O)O` returned a melting point of 71.5 to 72 °C.

The compound `CCSc1cc(C)nc(SCC)c1NC(=O)CCCSc1nc2ccccc2[nH]1` displayed a melting point of 160 to 161 °C.

The compound `N#CC(Nc1cc(Cl)c(Cl)cc1Cl)c1ccccc1` (stereo unspecified) displayed a melting point of 124 °C.

In turn, `C=CCN(CC(=O)OC(C)(C)C)c1c(N)c(=O)c1=O` returned a melting point of 175 to 176 °C.

`Cc1ccc(-c2cccc(CCl)n2)cc1`: the melting point was determined as 94 °C.

In turn, `COC(=O)C1(OC)CC(O)C(NC(C)=O)C(C(O)C(O)CO)O1` (stereo unspecified) showed a melting point of 161 to 167 °C.

Consider `CC(C)OC(=O)N1CCC(NC(=O)N2CCn3c(c(C(N)=O)c(C#N)c3-c3ccccc3)C2)CC1`, for which the melting point lay in the range of 172 to 174 °C.

For the compound `CON=C(C)c1ccccc1NC(C(N)=O)c1c(Cl)cccc1Cl` (stereo unspecified), the melting point was 206 °C.

Compound `O=C(O)c1cn(CCO)nc1[N+](=O)[O-]` registered a melting point of 147 to 149 °C.

In turn, `CCC(=O)N(CC)c1cccc(-c2ccc(Cl)nn2)c1` registered a melting point of 118 to 119 °C.
